Conditions: 101.33 kPa, Liquid; for viscosity: Capillary tube (Ostwald / Ubbelohde) method; for mass density: Vibrating tube method

CCCCC(CC)COP(=O)(O)OCC(CC)CCCC (stereo not given) [bis(2-ethylhexyl) hydrogen phosphate]
Conditions | mass density [kg/m3] | viscosity [mPa·s]
303.15 K | 964 | 21.22
313.15 K | 957 | 13.32
323.15 K | 949.5 | 8.559
333.15 K | 942 | 5.83
343.15 K | 934.5 | 4.089

— the NIST ThermoML archive (doi:10.1021/je0496645)
